The NIST ThermoML archive (doi:10.1021/acs.jced.8b00103)
Numbers after ± are expanded uncertainties.

Tests used:
[1] = xn = mol fraction of the nth substance listed; conditions: 101 kPa, Liquid, Vibrating tube method
[2] = Liquid; for mass density: 101 kPa, Vibrating tube method; for vapor or sublimation pressure: Ebulliometric method (Recirculating still)
[3] = refractive index (Na D-line) (dimensionless); conditions: 293.15 K; 101.33 kPa; Liquid; Standard Abbe refractometry

CC(C)CO [2-methyl-1-propanol] + CC(C)O
mass density ([1]; 333.15 K, x2 = 0): 769.49 ± 0.15 kg/m3
mass density ([1]; 333.15 K, x2 = 0.042): 768.8 ± 0.15 kg/m3
mass density ([1]; 333.15 K, x2 = 0.1428): 767.1 ± 0.16 kg/m3
mass density ([1]; 333.15 K, x2 = 0.1913): 766.26 ± 0.16 kg/m3
mass density ([1]; 333.15 K, x2 = 0.2906): 764.49 ± 0.16 kg/m3
mass density ([1]; 333.15 K, x2 = 0.3911): 762.62 ± 0.16 kg/m3
mass density ([1]; 333.15 K, x2 = 0.4444): 761.6 ± 0.16 kg/m3
mass density ([1]; 333.15 K, x2 = 0.4993): 760.52 ± 0.16 kg/m3
mass density ([1]; 333.15 K, x2 = 0.5485): 759.52 ± 0.16 kg/m3
mass density ([1]; 333.15 K, x2 = 0.594): 758.58 ± 0.16 kg/m3
mass density ([1]; 333.15 K, x2 = 0.6911): 756.5 ± 0.16 kg/m3
mass density ([1]; 333.15 K, x2 = 0.7445): 755.31 ± 0.16 kg/m3
mass density ([1]; 333.15 K, x2 = 0.8481): 752.91 ± 0.16 kg/m3
mass density ([1]; 333.15 K, x2 = 0.8925): 751.85 ± 0.16 kg/m3
mass density ([1]; 333.15 K, x2 = 0.9491): 750.48 ± 0.17 kg/m3
mass density ([1]; 343.15 K, x2 = 0): 760.79 ± 0.16 kg/m3
mass density ([1]; 343.15 K, x2 = 0.042): 760.07 ± 0.16 kg/m3
mass density ([1]; 343.15 K, x2 = 0.1428): 758.28 ± 0.16 kg/m3
mass density ([1]; 343.15 K, x2 = 0.1913): 757.39 ± 0.16 kg/m3
mass density ([1]; 343.15 K, x2 = 0.2906): 755.53 ± 0.16 kg/m3
mass density ([1]; 343.15 K, x2 = 0.3911): 753.57 ± 0.16 kg/m3
mass density ([1]; 343.15 K, x2 = 0.4444): 752.49 ± 0.16 kg/m3
mass density ([1]; 343.15 K, x2 = 0.4993): 751.36 ± 0.16 kg/m3
mass density ([1]; 343.15 K, x2 = 0.5485): 750.32 ± 0.16 kg/m3
mass density ([1]; 343.15 K, x2 = 0.594): 749.33 ± 0.16 kg/m3
mass density ([1]; 343.15 K, x2 = 0.6911): 747.14 ± 0.17 kg/m3
mass density ([1]; 343.15 K, x2 = 0.7445): 745.88 ± 0.17 kg/m3
mass density ([1]; 343.15 K, x2 = 0.8481): 743.36 ± 0.17 kg/m3
mass density ([1]; 343.15 K, x2 = 0.8925): 742.24 ± 0.17 kg/m3
mass density ([1]; 343.15 K, x2 = 0.9491): 740.78 ± 0.17 kg/m3
mass density ([1]; 353.15 K, x2 = 0): 751.86 ± 0.16 kg/m3
mass density ([1]; 353.15 K, x2 = 0.042): 751.1 ± 0.16 kg/m3
mass density ([1]; 353.15 K, x2 = 0.1428): 749.19 ± 0.16 kg/m3
mass density ([1]; 353.15 K, x2 = 0.1913): 748.25 ± 0.16 kg/m3
mass density ([1]; 353.15 K, x2 = 0.2906): 746.26 ± 0.16 kg/m3
mass density ([1]; 353.15 K, x2 = 0.3911): 744.18 ± 0.17 kg/m3
mass density ([1]; 353.15 K, x2 = 0.4444): 743.03 ± 0.17 kg/m3
mass density ([1]; 353.15 K, x2 = 0.4993): 741.83 ± 0.17 kg/m3
mass density ([1]; 353.15 K, x2 = 0.5485): 740.72 ± 0.17 kg/m3
mass density ([1]; 353.15 K, x2 = 0.594): 739.66 ± 0.17 kg/m3
mass density ([1]; 353.15 K, x2 = 0.6911): 737.33 ± 0.17 kg/m3
mass density ([1]; 353.15 K, x2 = 0.7445): 735.99 ± 0.17 kg/m3
mass density ([1]; 353.15 K, x2 = 0.8481): 733.3 ± 0.17 kg/m3
mass density ([1]; 353.15 K, x2 = 0.8925): 732.1 ± 0.17 kg/m3
mass density ([1]; 353.15 K, x2 = 0.9491): 730.53 ± 0.17 kg/m3

CC(C)CO [2-methyl-1-propanol]
mass density ([2]; 333.15 K): 769.49 ± 0.15 kg/m3
vapor or sublimation pressure ([2]; 333.15 K): 12.3 ± 0.2 kPa
mass density ([2]; 343.15 K): 760.79 ± 0.16 kg/m3
vapor or sublimation pressure ([2]; 343.15 K): 21 ± 0.2 kPa
mass density ([2]; 353.15 K): 751.86 ± 0.16 kg/m3
vapor or sublimation pressure ([2]; 353.15 K): 32.7 ± 0.2 kPa
refractive index [3]: 1.3962 ± 0.0004

CC(C)O [propan-2-ol]
mass density ([2]; 333.15 K): 749.23 ± 0.16 kg/m3
vapor or sublimation pressure ([2]; 333.15 K): 38.5 ± 0.3 kPa
mass density ([2]; 343.15 K): 739.46 ± 0.17 kg/m3
vapor or sublimation pressure ([2]; 343.15 K): 61.1 ± 0.3 kPa
mass density ([2]; 353.15 K): 729.1 ± 0.17 kg/m3
vapor or sublimation pressure ([2]; 353.15 K): 92.3 ± 0.4 kPa
refractive index [3]: 1.3774 ± 0.0004

CC(C)O [propan-2-ol] + CC(C)CO
mass density ([1]; 333.15 K, x1 = 1): 749.23 ± 0.16 kg/m3
mass density ([1]; 343.15 K, x1 = 1): 739.46 ± 0.17 kg/m3
mass density ([1]; 353.15 K, x1 = 1): 729.1 ± 0.17 kg/m3
